“And” between values parts separate entries of the source, which are not always exact repeats. Equal values may be shown once. Toxic doses and inconclusive results are not listed.

In this assay the test system is BDF1 mice, P388 leukemia ip, median survival T/C. Briefly: NCI In Vivo Anticancer Drug Screen. Data for tumor model P388 Leukemia (intraperitoneal) in B6D2F1 (BDF1) mice. Particulars: endpoint: median survival time, higher = longer survival. In outline: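 Each value expresses how treatment altered survival: treated-mouse outcome over vehicle-mouse outcome, both groups bearing the transplanted tumour.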

[1] abbreviates: dose: 100.0 mg/kg/injection, schedule: Q04DX003 (ip), vehicle: Klucel (hydroxypropylcellulose) (HPC).
Setting [2] is: dose: 200.0 mg/kg/injection, schedule: Q04DX003 (ip), vehicle: Klucel (hydroxypropylcellulose) (HPC).
The mark [3] stands for this setting: dose: 400.0 mg/kg/injection, schedule: Q04DX003 (ip), vehicle: Klucel (hydroxypropylcellulose) (HPC).
Where [4] appears, read: dose: 100.0 mg/kg/injection, schedule: Q01DX009 (ip), vehicle: saline with Tween-80.
Setting [5] is: dose: 200.0 mg/kg/injection, schedule: Q01DX009 (ip), vehicle: saline with Tween-80.
Where [6] appears, read: dose: 25.0 mg/kg/injection, schedule: Q04DX003 (ip), vehicle: saline with Tween-80.
The mark [7] stands for this setting: dose: 50.0 mg/kg/injection, schedule: Q04DX003 (ip), vehicle: saline with Tween-80.
[8] abbreviates: dose: 50.0 mg/kg/injection, schedule: Q01DX009 (ip), vehicle: saline with Tween-80.
Setting [9] is: dose: 100.0 mg/kg/injection, schedule: Q04DX003 (ip), vehicle: saline with Tween-80.
The mark [10] stands for this setting: dose: 200.0 mg/kg/injection, schedule: Q04DX003 (ip), vehicle: saline with Tween-80.
Setting [11] is: dose: 25.0 mg/kg/injection, schedule: Q01DX009 (ip), vehicle: saline with Tween-80.

Take `COc1cc2c(cc1NC(=O)N(CCCl)N=O)-c1ccccc1C2`: the T/C reads like this: (dose: 8.3 mg/kg/injection, schedule: Q04DX003 (ip), vehicle: Klucel (hydroxypropylcellulose) (HPC)) 108 % of control; (dose: 12.0 mg/kg/injection, schedule: Q04DX003 (ip), vehicle: Klucel (hydroxypropylcellulose) (HPC)) 113 % of control; (dose: 19.0 mg/kg/injection, schedule: Q04DX003 (ip), vehicle: Klucel (hydroxypropylcellulose) (HPC)) 154 % of control; (dose: 29.0 mg/kg/injection, schedule: Q04DX003 (ip), vehicle: Klucel (hydroxypropylcellulose) (HPC)) 154 % of control; (dose: 45.0 mg/kg/injection, schedule: Q04DX003 (ip), vehicle: Klucel (hydroxypropylcellulose) (HPC)) 172 % of control; (dose: 65.0 mg/kg/injection, schedule: Q04DX003 (ip), vehicle: Klucel (hydroxypropylcellulose) (HPC)) 190 % of control. Further, the T/C was 168 % of control under setting [1], 172 % of control under setting [2] and 209 % of control under setting [3].

Turning to `Nc1nc(N)nc(-c2ccc([N+](=O)[O-])o2)n1`, the T/C reads like this: under setting [4], 102 % of control; under setting [5], 96 % of control; (dose: 400.0 mg/kg/injection, schedule: Q01DX009 (ip), vehicle: saline with Tween-80) 106 % of control.

`CC#CC(=O)SCCNC(=O)CC`: the T/C was 100 % of control (dose: 12.5 mg/kg/injection, schedule: Q04DX003 (ip), vehicle: saline with Tween-80); 104 % of control under setting [6]; 95 % of control and 100 % of control under setting [7].

Take `CCN(CC)Cc1c(C)[nH]c2c(OC)cccc2c1=O`: the T/C reads like this: (dose: 6.25 mg/kg/injection, schedule: Q01DX009 (ip), vehicle: water) 97 % of control; (dose: 6.25 mg/kg/injection, schedule: Q04DX003 (ip), vehicle: water) 98 % of control; (dose: 12.5 mg/kg/injection, schedule: Q01DX009 (ip), vehicle: water) 99 % of control; (dose: 12.5 mg/kg/injection, schedule: Q04DX003 (ip), vehicle: water) 91 % of control; (dose: 25.0 mg/kg/injection, schedule: Q01DX009 (ip), vehicle: water) 106 % of control; (dose: 25.0 mg/kg/injection, schedule: Q04DX003 (ip), vehicle: water) 105 % of control. Moreover, the T/C was 97 % of control (dose: 50.0 mg/kg/injection, schedule: Q01DX009 (ip), vehicle: water); 100 % of control (dose: 50.0 mg/kg/injection, schedule: Q04DX003 (ip), vehicle: water); 108 % of control (dose: 100.0 mg/kg/injection, schedule: Q01DX009 (ip), vehicle: water); 105 % of control (dose: 100.0 mg/kg/injection, schedule: Q04DX003 (ip), vehicle: water).

In the case of `O=C(c1ccccc1)C(SSC(C(=O)c1ccccc1)C(=O)c1ccccc1)C(=O)c1ccccc1`, the T/C was 100 % of control under setting [8], 112 % of control under setting [4] and 103 % of control under setting [5].

For the molecule `C=C1C(O)C2(O)OCC34C(CC5C(C)=CC(=O)C(O)C5(C)C23)OC(=O)C(O)C14` (centres undefined), the T/C reads like this: (dose: 0.06 mg/kg/injection, schedule: Q01DX009 (ip), vehicle: saline) 95 % of control; (dose: 0.25 mg/kg/injection, schedule: Q01DX009 (ip), vehicle: saline) 106 % of control; (dose: 1.0 mg/kg/injection, schedule: Q01DX009 (ip), vehicle: saline) 98 % of control.

Consider `CCCCN(CCCC)c1ccc(/C=C/c2ccnc3ccccc23)cc1`, for which the T/C is, setting by setting: (dose: 100.0 mg/kg/injection, schedule: Q01DX009 (sc), vehicle: olive oil, sesame oil, peanut oil) 88 % of control; (dose: 100.0 mg/kg/injection, schedule: Q04DX003 (sc), vehicle: olive oil, sesame oil, peanut oil) 88 % of control and 95 % of control; (dose: 200.0 mg/kg/injection, schedule: Q01DX009 (sc), vehicle: olive oil, sesame oil, peanut oil) 88 % of control; (dose: 200.0 mg/kg/injection, schedule: Q04DX003 (sc), vehicle: olive oil, sesame oil, peanut oil) 92 % of control and 95 % of control; (dose: 400.0 mg/kg/injection, schedule: Q01DX009 (sc), vehicle: olive oil, sesame oil, peanut oil) 92 % of control; (dose: 400.0 mg/kg/injection, schedule: Q04DX003 (sc), vehicle: olive oil, sesame oil, peanut oil) 92 % of control and 95 % of control.

As for `N#[N+]c1cnc([O-])[nH]c1=O`, the T/C (dose: 1.25 mg/kg/injection, schedule: Q01DX010 (ip), vehicle: saline) is 175 % of control; the T/C (dose: 2.5 mg/kg/injection, schedule: Q01DX010 (ip), vehicle: saline) was 185 % of control; the T/C (dose: 5.0 mg/kg/injection, schedule: Q01DX010 (ip), vehicle: saline) is 172 % of control and 210 % of control; the T/C (dose: 10.0 mg/kg/injection, schedule: Q01DX010 (ip), vehicle: saline) is 240 % of control and 177 % of control.

`CCOC(=O)Cn1nc(-c2ccc([N+](=O)[O-])o2)oc1=O`: the T/C is 97 % of control under setting [8], 95 % of control under setting [4] and 103 % of control under setting [5].

Consider `O=c1c2ccccc2[nH]c2ccccc12`, for which the T/C is 105 % of control under setting [7]; 99 % of control under setting [9]; 99 % of control under setting [10]; 96 % of control (dose: 400.0 mg/kg/injection, schedule: Q04DX003 (ip), vehicle: saline with Tween-80).

Turning to `COC(=O)C(CCC1CCCCN1)(c1ccccc1)c1ccccc1` (centres undefined), the T/C by setting is: (dose: 66.0 mg/kg/injection, schedule: Q04DX003 (ip), vehicle: saline with Tween-80) 123 % of control; (dose: 100.0 mg/kg/injection, schedule: Q01DX009 (ip), vehicle: saline) 90 % of control.

For `COC(=O)c1cc(Cl)ccc1OCC(=O)Nc1ccc([N+](=O)[O-])cc1`, the T/C is, setting by setting: under setting [1], 95 % of control and 100 % of control; under setting [2], 104 % of control; under setting [3], 87 % of control and 104 % of control.

On to `CC1=C(Br)C(=O)C(c2c(C)cc(C)cc2C)=C(Br)C1=O`, for which the T/C runs as follows: (dose: 6.25 mg/kg/injection, schedule: Q01DX009 (ip), vehicle: saline) 86 % of control; (dose: 12.5 mg/kg/injection, schedule: Q01DX009 (ip), vehicle: saline) 93 % of control; (dose: 12.5 mg/kg/injection, schedule: Q04DX003 (ip), vehicle: saline) 104 % of control; (dose: 25.0 mg/kg/injection, schedule: Q04DX003 (ip), vehicle: saline) 95 % of control; (dose: 50.0 mg/kg/injection, schedule: Q04DX003 (ip), vehicle: saline) 105 % of control; (dose: 100.0 mg/kg/injection, schedule: Q04DX003 (ip), vehicle: saline) 97 % of control. Moreover, under “dose: 200.0 mg/kg/injection, schedule: Q04DX003 (ip), vehicle: saline”, the T/C was 95 % of control.

`S=C(N/N=C/c1ccc(-c2ccccc2)cc1)Nc1ccccc1`: the T/C was 91 % of control under setting [8]; 95 % of control under setting [7]; 91 % of control under setting [4]; 91 % of control under setting [9]; 91 % of control under setting [5]; 91 % of control under setting [10].

`CCCCCC1=NC(C)(C(=O)OC)OO1` (centres undefined): the T/C is 114 % of control under setting [11] and 112 % of control under setting [8].

Turning to `S=C(S)NNc1ccccc1`, the T/C reads like this: under setting [11], 86 % of control; under setting [6], 110 % of control; under setting [8], 100 % of control; under setting [7], 105 % of control; under setting [4], 100 % of control; under setting [9], 100 % of control.

The values above are taken from PubChem BioAssay AID328 (DTP/NCI, 2004).
